Data as given in PMC12263422, “Cryo-EM structure of the human THIK-1 K2P K^+ channel reveals a lower Y gate regulated by lipids and anesthetics” (Nature Structural & Molecular Biology, 2025).
Where “and” joins values, the source holds several entries; their conditions need not be identical. Identical values can stand only once.

Experiments:
THIK-2*-Y292A = target: T1, THIK-2*-Y292A (Homo sapiens, UniProt Q9HB15, R11A/R12A/R14A/R15A/R16A/Y292A); experiment: Inside-out excised patch recordings, oocytes, THIK-2* Y292A; format: cell-based
T1 construct: expressed in transfected cells; host or cells: Xenopus oocytes (mRNA injection)
T1 sequence (Q9HB15 1-430 R11A/R12A/R14A/R15A/R16A/Y292A): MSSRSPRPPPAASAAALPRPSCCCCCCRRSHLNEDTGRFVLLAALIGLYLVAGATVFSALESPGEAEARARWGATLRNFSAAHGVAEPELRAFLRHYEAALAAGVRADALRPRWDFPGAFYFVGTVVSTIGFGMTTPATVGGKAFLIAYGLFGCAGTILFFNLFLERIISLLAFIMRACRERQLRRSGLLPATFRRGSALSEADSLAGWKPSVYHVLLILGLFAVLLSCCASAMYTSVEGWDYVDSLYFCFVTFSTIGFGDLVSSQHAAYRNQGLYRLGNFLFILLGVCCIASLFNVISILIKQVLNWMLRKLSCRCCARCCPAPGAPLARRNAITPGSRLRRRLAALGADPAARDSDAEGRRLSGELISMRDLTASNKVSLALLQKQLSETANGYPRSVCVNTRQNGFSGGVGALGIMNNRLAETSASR
Excerpt: (§1) Human K2P13.1 THIK-1 (GenBank accession number: NM_022054) and human K2P12.1 THIK-2 (NM_022055.1) were used in this study. For functional expression studies, the respective K^+ channel subtype coding sequences were subcloned into the oocyte expression vector pSGEM or the dual-purpose expression vector pFAW[41] and verified by sequencing. All mutant channels were obtained by site-directed mutagenesis and verified by sequencing. To increase surface expression and macroscopic currents, measurements of THIK-2 channels used a mutated ER retention motif, (R11A R12A R14A R15A R16A; THIK-2*)[20]. Vector DNA was linearized with NheI or MluI, and mRNA was synthesized in vitro using the SP6 or T7 AmpliCap Max High Yield Message Maker Kit (Cellscript, USA) or HiScribe T7 ARCA mRNA Kit (New England Biolabs).
(§2) Two-electrode voltage–clamp (TEVC) studies were performed in Xenopus oocytes. All animal use conformed to the Guide for the Care and Use of Laboratory Animals (NIH Publication 85–23), and all experiments using Xenopus toads were approved by the local ethics panels. Oocytes were stored at 17 °C in ND96 recording solution composed of (in mM): 96 NaCl, 2 KCl, 1.8 CaCl2, 1 MgCl2, 5 HEPES (pH 7.5 adjusted with NaOH and HCl), supplemented with Na-pyruvate (275 mg L^–1), theophylline (90 mg L^–1) and gentamicin (50 mg L^–1). Oocytes were injected with 1 ng mRNA for WT or mutant channels, and were incubated for 24–48 h at 17 °C. Two-electrode voltage clamp recordings were then performed as previously described[42],[43]. For macroscopic patch–clamp measurements, oocytes were obtained as described above incubated at 17 °C in a solution containing (mM): 54 NaCl, 30 KCl, 2.4 NaHCO3, 0.82 MgSO4 ×7 H2O, 0.41 CaCl2, 0.33 Ca(NO3)2 ×4 H2O and 7.5 TRIS (pH 7.4 adjusted with NaOH and HCl) for 1–4 days before use. Excised patch recordings in inside-out configuration conditions were performed at room temperature. Patch pipettes were made from thick-walled borosilicate glass GB 200TF-8P (Science Products), had resistances of 0.2–0.5 MΩ (tip diameter, 10–25 µm) and filled with a pipette solution (in mM): 120 KCl, 10 HEPES and 3.6 CaCl2 (pH 7.4 adjusted with KOH and HCl). Intracellular bath solutions and compounds were applied to the cytoplasmic side of excised patches for the various K^+ channels through a gravity flow multi-barrel pipette system. The intracellular solution had the following composition (in mM): 120 KCl, 10 HEPES, 2 EGTA and 1 pyrophosphate (pH adjusted with KOH and HCl). Currents were recorded with an EPC10 amplifier (HEKA Electronics) and sampled at 10 kHz or higher, with filtering set to 3 kHz (–3 dB) or higher, as appropriate for sampling rate. For measurements of GPCR activation, whole-cell currents were recorded for THIK-1 in transiently transfected HEK-293 cells. Cells were stimulated by a ramp protocol between −100 and +60 mV (holding potential, −80 mV). The pipette solution was composed of (in mM): 140 KCl, 2 MgCl2, 1 CaCl2, 2.5 EGTA and 10 HEPES (pH 7.3 adjusted with KOH and HCl). The extracellular bath solution had the following composition (in mM): 135 NaCl, 5 KCl, 2 MgCl2, 2 CaCl2, 10 glucose and 10 HEPES pH (pH 7.3 adjusted with NaOH and HCl). Oxotremorine M (Oxo-M) was added to extracellular bath solution to obtain the final concentration. Single-channel currents were recorded with an Axopatch 200B amplifier through a Digidata 1440A digitizer (Molecular Devices). Data were filtered at 2 kHz and recorded at a 200-kHz sampling rate with the program Clampex (Molecular Devices). Pipette solution and bath solution for cell-attached recordings contained (in mM): 140 KCl, 2 MgCl2, 1 CaCl2 and 10 HEPES (pH 7.4 adjusted with KOH and HCl). For inside-out recordings, the bath solution contained (in mM): 140 KCl, 2 MgCl2, 1 CaCl2 and 10 HEPES (pH 7.2 adjusted with KOH and HCl). All experiments were conducted at room temperature. […]

THIK-1 R87D = target: T2, THIK-1 R87D (Homo sapiens, UniProt Q9HB14, R87D); experiment: Macroscopic inside-out excised patch recordings, oocytes, THIK-1 R87D mutant; format: cell-based
T2 construct: expressed in transfected cells; host or cells: Xenopus oocytes (mRNA injection)
T2 sequence (Q9HB14 1-408 R87D): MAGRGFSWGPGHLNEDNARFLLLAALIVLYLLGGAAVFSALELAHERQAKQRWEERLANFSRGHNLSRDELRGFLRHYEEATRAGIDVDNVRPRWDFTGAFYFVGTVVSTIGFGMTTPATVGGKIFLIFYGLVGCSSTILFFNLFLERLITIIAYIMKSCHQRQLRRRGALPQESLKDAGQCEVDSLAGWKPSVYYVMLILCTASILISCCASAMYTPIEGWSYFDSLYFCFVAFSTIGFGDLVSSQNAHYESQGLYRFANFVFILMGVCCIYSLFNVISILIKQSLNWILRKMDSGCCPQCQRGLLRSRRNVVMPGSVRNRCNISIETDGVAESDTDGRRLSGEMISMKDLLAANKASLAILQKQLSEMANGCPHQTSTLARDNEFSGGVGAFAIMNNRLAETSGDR
Excerpt: as §1, §2

Row | inhibition at 3000 µM (THIK-1 R87D; 3.0 mM halothane, R87D, mean) [%] | inhibition at 152 µM (THIK-1 R87D; THIK-1 R87D, 0.152 mM halothane) [%] | inhibition at 304 µM (THIK-1 R87D; THIK-1 R87D, 0.304 mM halothane) [%] | inhibition at 1520 µM (THIK-1 R87D; THIK-1 R87D, 1.52 mM halothane) [%] | inhibition at 15200 µM (THIK-1 R87D; THIK-1 R87D, 15.2 mM halothane) [%] | SMILES | Normalized currents (THIK-2*-Y292A; 0.1 µM TPenA) | Normalized currents (THIK-2*-Y292A; 1 µM TPenA) | Normalized currents (THIK-2*-Y292A; 10 µM TPenA) | Normalized currents (THIK-2*-Y292A; 100 µM TPenA) | Normalized currents (THIK-2*-Y292A; 1000 µM TPenA) | Normalized currents (THIK-2*-Y292A; 5000 µM TPenA) | τ of 1 mM TPenA block (THIK-2*-Y292A; individual recordings) | τ of 1 mM TPenA release (THIK-2*-Y292A; individual recordings) | τ of 1 mM TPenA block (THIK-2*-Y292A; mean) [s] | τ of 1 mM TPenA release (THIK-2*-Y292A; mean) [s] | Inhibition (%) (THIK-1 R87D; 3.0 mM halothane, R87D, individual recordings)
1 | – | – | – | – | – | CCCCC[N+](CCCCC)(CCCCC)CCCCC [TPenA, tetrapentylammonium] | 1.00 | 0.93 | 0.74 | 0.42 | 0.09 | 0.07 | 0.090 s and 0.080 s and 0.060 s and 0.150 s and 0.070 s | 0.680 s and 0.860 s and 0.410 s and 0.480 s and 1.100 s and 0.400 s | 0.09 | 0.66 | –
2 | 62.8 | 14.3 | 26 | 53.8 | 84.1 | FC(F)(F)C(Cl)Br (stereo not shown) [halothane] | – | – | – | – | – | – | – | – | – | – | 54.110% and 64.133% and 70.295% and 57.409% and 74.945% and 46.769% and 63.754% and 70.637% and 69.367% and 64.901% and 58.344% and 70.045% and 57.366% and 63.096% and 56.800%
